Measured values published in US7071207B2, “Preparation and use of 1,5,6,7-tetrahydropyrrolo[3,2-c]pyridine derivatives for treatment of obesity” (Bayer Pharmaceuticals Corporation, priority 2001, dated 2006).
Where a name gives a salt, the structure may show the parent alone.

Assays:
[1] = Measurement of brain exposure; type: in vivo; conditions: male, obese Zucker fa/fa, rat, brain homogenate, oral; 10 mg/kg p.o.; brains collected at 2 hours post-dosing; read-out: brain homogenate exposure level
Experimental: Measurement of Brain Exposure
Male obese Zucker fa/fa rats are administered compounds, typically at 10 mg/kg p.o., and then brains are collected at 2 hours post-dosing for determination of brain concentration. Brains are weighed and homogenized with 4 mL 10 mM ammonium acetate buffer (pH 3), and the brain tissue homogenate samples are extracted via protein precipitation with acetonitrile. Samples are vortexed, centrifuged, and analyzed by liquid chromatography utilizing mass spectrometer selective detection (LC/MS/MS) using the heated nebulizer interface. Samples are quantitated using weighted (1/x^2) linear internal standard calibration curve.

obese Zucker fa/fa rats = assay: Chronic feeding assay (body weight, food and water consumption); type: in vivo, rat; conditions: once per day at 10 mg/kg p.o.; day 6 of treatment
Excerpt: Evaluation of Compound's Efficacy on the Reduction of Body Weight and Food and Water Consumption in Obese Zucker fa/fa Rats
The purpose of this protocol is to determine the effect of chronic administration of an unknown compound on body weight and food and water consumption in obese Zucker fa/fa rats. Obese Zucker fa/fa rats are frequently used in the determination of compound efficacy in the reduction of body weight. This animal model has been successfully used in the identification and characterization of the efficacy profile of compounds that are or have been used in the management of body weight in obese humans (see, e.g., Al-Barazanji et al., Obes Res. 8:317–323, 2000; Assimacopoulos-Jeannet et al., Am. J. Physiol. 260(2 Pt 2):R278–283, 1991; Dryden et al., Horm. Metab. Res. 31:363–366, 1999; Edwards and Stevens, Pharmacol. Biochem. Behav. 47:865–872, 1994; Grinker et al., Pharmacol. Biochem. Behav. 12:265–275, 1980).
A typical study includes 60–80 male Zucker fa/fa (n=10/treatment group) with an average body weight of approximately 550 g. […]
Animals are orally gavaged (2 mL/kg) daily before the dark phase of the LD/cycle for a pre-determined number of days (typically 6–14 days) with their assigned dose/compound. At this time, body weight, food and water consumption are measured. On the final day, animals are euthanized by CO2 inhalation, and the body weight is measured.

| concentration at 2 h [1] | SMILES | increase in body weight from baseline (obese Zucker fa/fa rats) |
| --- | --- | --- |
| > 500 nM | O[C@@H]1CCCC[C@H]1N1CCc2c(cc(-c3ccc(Cl)cc3)n2-c2ccccc2Cl)C1 (relative stereo) [entry 18, trans-2-[1-(2-chlorophenyl)-2-(4-chlorophenyl)-1,4,6,7-tetrahydro-5H-pyrrolo[3,2-c]pyridin-5-yl]cyclohexanol hydrochloride] | – |
| – | COc1ccc(-c2c(C)c3c(n2-c2ccccc2Cl)CCN(N2CCCCC2)C3=O)cc1.Cl [entry 189, 1-(2-chlorophenyl)-2-(4-methoxyphenyl)-3-methyl-5-(1-piperidinyl)-1,5,6,7-tetrahydro-4H-pyrrolo[3,2-c]pyridin-4-one hydrochloride] | no increase in body weight from baseline |
